Results as given in the NIST ThermoML archive (doi:10.1016/j.jct.2018.12.028).

Experiment: wn = mass fraction of the nth substance listed
Settings: 101.3 kPa, Liquid; for viscosity: Falling or rolling sphere viscometry; for mass density: Vibrating tube method

COCCO [2-methoxyethan-1-ol] + NCCO
Settings | mass density [kg/m3] | viscosity [mPa·s]
293.15 K, w2 = 0 | 964.7 | 1.692
293.15 K, w2 = 0.1 | 971.8 | 2.321
293.15 K, w2 = 0.3 | 984.5 | 4.371
293.15 K, w2 = 0.5 | 995.6 | 7.952
293.15 K, w2 = 0.7 | 1005.1 | 13
293.15 K, w2 = 0.898 | 1013.4 | 20.5
298.15 K, w2 = 0 | 960.1 | 1.527
298.15 K, w2 = 0.1 | 967.3 | 2.065
298.15 K, w2 = 0.3 | 980.2 | 3.765
298.15 K, w2 = 0.5 | 991.4 | 6.634
298.15 K, w2 = 0.7 | 1001 | 10.51
298.15 K, w2 = 0.898 | 1009.4 | 16.17
303.15 K, w2 = 0 | 955.5 | 1.386
303.15 K, w2 = 0.1 | 962.8 | 1.849
303.15 K, w2 = 0.3 | 975.8 | 3.269
303.15 K, w2 = 0.5 | 987.1 | 5.598
303.15 K, w2 = 0.7 | 996.9 | 8.619
303.15 K, w2 = 0.898 | 1005.4 | 12.97
308.15 K, w2 = 0 | 950.9 | 1.262
308.15 K, w2 = 0.1 | 958.3 | 1.664
308.15 K, w2 = 0.3 | 971.5 | 2.861
308.15 K, w2 = 0.5 | 982.9 | 4.773
308.15 K, w2 = 0.7 | 992.8 | 7.158
308.15 K, w2 = 0.898 | 1001.4 | 10.55
313.15 K, w2 = 0 | 946.2 | 1.155
313.15 K, w2 = 0.1 | 953.7 | 1.504
313.15 K, w2 = 0.3 | 967.1 | 2.521
313.15 K, w2 = 0.5 | 978.6 | 4.105
313.15 K, w2 = 0.7 | 988.6 | 6.011
313.15 K, w2 = 0.898 | 997.3 | 8.699
318.15 K, w2 = 0 | 941.5 | 1.061
318.15 K, w2 = 0.1 | 949.1 | 1.367
318.15 K, w2 = 0.3 | 962.7 | 2.235
318.15 K, w2 = 0.5 | 974.3 | 3.561
318.15 K, w2 = 0.7 | 984.4 | 5.098
318.15 K, w2 = 0.898 | 993.3 | 7.265
323.15 K, w2 = 0 | 936.7 | 0.9781
323.15 K, w2 = 0.1 | 944.5 | 1.246
323.15 K, w2 = 0.3 | 958.2 | 1.992
323.15 K, w2 = 0.5 | 970 | 3.112
323.15 K, w2 = 0.7 | 980.3 | 4.367
323.15 K, w2 = 0.898 | 989.2 | 6.134
328.15 K, w2 = 0 | 932 | 0.905
328.15 K, w2 = 0.1 | 939.9 | 1.141
328.15 K, w2 = 0.3 | 953.8 | 1.786
328.15 K, w2 = 0.5 | 965.7 | 2.741
328.15 K, w2 = 0.7 | 976 | 3.775
328.15 K, w2 = 0.898 | 985.1 | 5.229
333.15 K, w2 = 0 | 927.2 | 0.8397
333.15 K, w2 = 0.1 | 935.2 | 1.049
333.15 K, w2 = 0.3 | 949.2 | 1.609
333.15 K, w2 = 0.5 | 961.3 | 2.427
333.15 K, w2 = 0.7 | 971.8 | 3.288
333.15 K, w2 = 0.898 | 981 | 4.503
338.15 K, w2 = 0 | 922.3 | 0.7818
338.15 K, w2 = 0.1 | 930.4 | 0.967
338.15 K, w2 = 0.3 | 944.7 | 1.456
338.15 K, w2 = 0.5 | 956.9 | 2.161
338.15 K, w2 = 0.7 | 967.5 | 2.884
338.15 K, w2 = 0.898 | 976.9 | 3.91
343.15 K, w2 = 0 | 917.4 | 0.7298
343.15 K, w2 = 0.1 | 925.7 | 0.8945
343.15 K, w2 = 0.3 | 940.1 | 1.324
343.15 K, w2 = 0.5 | 952.5 | 1.936
343.15 K, w2 = 0.7 | 963.3 | 2.546
343.15 K, w2 = 0.898 | 972.7 | 3.42
348.15 K, w2 = 0 | 912.4 | 0.6834
348.15 K, w2 = 0.1 | 920.8 | 0.8302
348.15 K, w2 = 0.3 | 935.5 | 1.207
348.15 K, w2 = 0.5 | 948 | 1.741
348.15 K, w2 = 0.7 | 958.9 | 2.261
348.15 K, w2 = 0.898 | 968.5 | 3.011
353.15 K, w2 = 0 | 907.4 | 0.6409
353.15 K, w2 = 0.1 | 916 | 0.7712
353.15 K, w2 = 0.3 | 930.8 | 1.105
353.15 K, w2 = 0.5 | 943.5 | 1.568
353.15 K, w2 = 0.7 | 954.6 | 2.019
353.15 K, w2 = 0.898 | 964.3 | 2.67
